Laboratory results from ChEMBL document CHEMBL3991601, “The target landscape of clinical kinase drugs” (Science, 2017).
Active and inactive are the calls of the source.
Note: in the data inactive means no Kd found up to 30 µM.

These compounds were tested against T1, MAP/microtubule affinity-regulating kinase 4 (Homo sapiens, UniProt Q96L34).
T1 sequence (Q96L34 whole entry): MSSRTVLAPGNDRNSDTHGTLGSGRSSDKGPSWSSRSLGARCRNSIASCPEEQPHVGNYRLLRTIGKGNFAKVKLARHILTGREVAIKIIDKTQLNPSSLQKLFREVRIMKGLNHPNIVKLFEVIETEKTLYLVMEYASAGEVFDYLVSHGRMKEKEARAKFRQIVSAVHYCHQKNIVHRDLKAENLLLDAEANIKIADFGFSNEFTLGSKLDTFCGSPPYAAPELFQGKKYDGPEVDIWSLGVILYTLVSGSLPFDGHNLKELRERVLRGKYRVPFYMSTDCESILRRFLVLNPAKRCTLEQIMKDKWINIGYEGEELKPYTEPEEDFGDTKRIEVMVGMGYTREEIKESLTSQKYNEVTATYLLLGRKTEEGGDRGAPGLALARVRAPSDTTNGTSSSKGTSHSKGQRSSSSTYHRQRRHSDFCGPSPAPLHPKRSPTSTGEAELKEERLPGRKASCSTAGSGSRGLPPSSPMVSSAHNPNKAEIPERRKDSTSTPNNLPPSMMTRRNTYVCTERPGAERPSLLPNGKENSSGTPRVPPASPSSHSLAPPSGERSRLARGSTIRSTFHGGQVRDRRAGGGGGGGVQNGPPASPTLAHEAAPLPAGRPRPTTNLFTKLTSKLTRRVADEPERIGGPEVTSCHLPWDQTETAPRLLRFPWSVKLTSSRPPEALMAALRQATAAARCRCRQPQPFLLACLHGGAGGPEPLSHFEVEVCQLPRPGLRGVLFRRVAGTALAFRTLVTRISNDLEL
`Cc1ccc(-n2nc(C(C)(C)C)cc2NC(=O)NCc2cc(F)ccc2Oc2ccc3c(cnn3CCO)c2)cc1` [PEXMETINIB] was tested, and the Kd was > 30 µM (inactive).
In the case of `OCCn1cc(-c2cnc3nnn(Cc4ccc5ncccc5c4)c3n2)cn1` [PF-04217903], the Kd is reported as > 30 µM (inactive).
For `COc1cc(OC)c(/C=C/S(=O)(=O)Cc2ccc(OC)c(NCC(=O)O)c2)c(OC)c1` [RIGOSERTIB], the Kd was > 30 µM (inactive).
With `O=C(Nc1cccc(Cl)c1)Nc1ncc(CCNc2ncnc3ccsc23)s1` [SNS-314] the Kd was > 30 µM (inactive).

Each compound was assayed against T2, Dual specificity mitogen-activated protein kinase kinase 6 (Homo sapiens, UniProt P52564).
T2 sequence (P52564 whole entry): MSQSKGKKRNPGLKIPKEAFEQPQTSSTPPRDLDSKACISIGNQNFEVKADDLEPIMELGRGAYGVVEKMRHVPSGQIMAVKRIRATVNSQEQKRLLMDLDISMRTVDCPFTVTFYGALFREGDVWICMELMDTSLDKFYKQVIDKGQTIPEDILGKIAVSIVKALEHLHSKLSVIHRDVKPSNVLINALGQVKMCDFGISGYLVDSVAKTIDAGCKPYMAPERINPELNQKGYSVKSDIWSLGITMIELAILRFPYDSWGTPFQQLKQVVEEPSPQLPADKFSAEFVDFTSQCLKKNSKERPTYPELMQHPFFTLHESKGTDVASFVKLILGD
For `N[C@@H]1CCCN(c2c(/C=C3\SC(=O)NC3=O)cccc2-c2ccccc2)C1`, the Kd was > 30 µM (inactive).
`CCS(=O)(=O)N1CC(CC#N)(n2cc(-c3ncnc4[nH]ccc34)cn2)C1` [BARICITINIB] was tested, and the Kd was > 30 µM (inactive).
For `Cc1ccc(-n2nc(C(C)(C)C)cc2NC(=O)NCc2cc(F)ccc2Oc2ccc3c(cnn3CCO)c2)cc1` [PEXMETINIB], the Kd was > 30 µM (inactive).
`OCCn1cc(-c2cnc3nnn(Cc4ccc5ncccc5c4)c3n2)cn1` [PF-04217903] was tested, and the Kd was > 30 µM (inactive).
`COc1cc(OC)c(/C=C/S(=O)(=O)Cc2ccc(OC)c(NCC(=O)O)c2)c(OC)c1` [RIGOSERTIB] was tested, and the Kd was > 30 µM (inactive).
For `C[C@@H](c1ccc2nccn2c1)n1nnc2ncc(-c3cnn(C)c3)nc21` [SAVOLITINIB], the Kd was > 30 µM (inactive).
In the case of `O=C(Nc1cccc(Cl)c1)Nc1ncc(CCNc2ncnc3ccsc23)s1` [SNS-314], the Kd is reported as > 30 µM (inactive).
With `CC(C)Nc1cc(-c2c[nH]c(C(=O)N[C@H](CO)c3cccc(Cl)c3)c2)c(Cl)cn1` [ULIXERTINIB] the Kd was > 30 µM (inactive).

The compounds below were run against Macrophage-stimulating protein receptor (Homo sapiens, UniProt Q04912).
Sequence of Macrophage-stimulating protein receptor (Q04912 25-304 limits assumed): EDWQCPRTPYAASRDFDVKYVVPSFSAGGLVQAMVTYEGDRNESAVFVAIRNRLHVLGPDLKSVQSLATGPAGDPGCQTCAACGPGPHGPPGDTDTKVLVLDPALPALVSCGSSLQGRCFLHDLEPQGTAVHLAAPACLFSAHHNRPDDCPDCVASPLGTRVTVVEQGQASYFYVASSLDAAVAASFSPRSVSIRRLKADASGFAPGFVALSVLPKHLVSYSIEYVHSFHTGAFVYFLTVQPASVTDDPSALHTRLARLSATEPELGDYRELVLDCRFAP
Sequence of Macrophage-stimulating protein receptor (Q04912 310-1400 limits assumed): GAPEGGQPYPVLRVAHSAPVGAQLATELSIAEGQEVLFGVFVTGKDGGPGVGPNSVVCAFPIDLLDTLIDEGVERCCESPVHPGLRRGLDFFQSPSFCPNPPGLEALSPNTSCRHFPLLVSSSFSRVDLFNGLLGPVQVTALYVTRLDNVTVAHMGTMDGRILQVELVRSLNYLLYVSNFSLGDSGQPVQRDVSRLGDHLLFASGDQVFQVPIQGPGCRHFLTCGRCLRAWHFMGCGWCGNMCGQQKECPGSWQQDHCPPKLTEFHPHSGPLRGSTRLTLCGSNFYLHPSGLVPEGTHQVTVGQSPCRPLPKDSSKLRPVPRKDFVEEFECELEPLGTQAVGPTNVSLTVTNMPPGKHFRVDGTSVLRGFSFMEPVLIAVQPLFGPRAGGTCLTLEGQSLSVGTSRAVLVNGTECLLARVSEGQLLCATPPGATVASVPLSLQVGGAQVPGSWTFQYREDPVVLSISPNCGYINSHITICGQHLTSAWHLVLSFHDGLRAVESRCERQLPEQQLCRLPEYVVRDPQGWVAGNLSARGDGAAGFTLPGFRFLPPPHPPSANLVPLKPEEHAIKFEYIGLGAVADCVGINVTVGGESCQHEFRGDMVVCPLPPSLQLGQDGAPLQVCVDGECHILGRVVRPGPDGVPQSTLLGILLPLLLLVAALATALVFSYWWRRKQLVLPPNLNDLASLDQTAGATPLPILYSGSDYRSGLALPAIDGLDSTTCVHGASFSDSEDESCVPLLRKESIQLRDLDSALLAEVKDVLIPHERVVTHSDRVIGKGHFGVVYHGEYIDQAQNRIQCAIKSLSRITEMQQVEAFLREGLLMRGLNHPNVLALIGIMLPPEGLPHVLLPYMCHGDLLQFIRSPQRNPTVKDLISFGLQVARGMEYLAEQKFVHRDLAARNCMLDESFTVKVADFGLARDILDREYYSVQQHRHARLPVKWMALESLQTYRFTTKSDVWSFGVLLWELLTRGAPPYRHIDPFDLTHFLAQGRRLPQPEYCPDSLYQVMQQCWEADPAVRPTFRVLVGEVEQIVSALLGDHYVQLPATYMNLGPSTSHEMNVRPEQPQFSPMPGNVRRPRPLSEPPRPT
With `N[C@@H]1CCCN(c2c(/C=C3\SC(=O)NC3=O)cccc2-c2ccccc2)C1` the Kd was > 30 µM (inactive).
In the case of `CCS(=O)(=O)N1CC(CC#N)(n2cc(-c3ncnc4[nH]ccc34)cn2)C1` [BARICITINIB], the Kd is reported as > 30 µM (inactive).
`Cc1ccc(-n2nc(C(C)(C)C)cc2NC(=O)NCc2cc(F)ccc2Oc2ccc3c(cnn3CCO)c2)cc1` [PEXMETINIB] was tested, and the Kd was > 30 µM (inactive).
For `COc1cc(OC)c(/C=C/S(=O)(=O)Cc2ccc(OC)c(NCC(=O)O)c2)c(OC)c1` [RIGOSERTIB], the Kd was > 30 µM (inactive).
For `C[C@@H](c1ccc2nccn2c1)n1nnc2ncc(-c3cnn(C)c3)nc21` [SAVOLITINIB], the Kd was > 30 µM (inactive).
In the case of `CC(C)Nc1cc(-c2c[nH]c(C(=O)N[C@H](CO)c3cccc(Cl)c3)c2)c(Cl)cn1` [ULIXERTINIB], the Kd is reported as > 30 µM (inactive).

These compounds were tested against T3, Ras-related protein Rab-10 (Homo sapiens, UniProt P61026).
T3 sequence (P61026 whole entry): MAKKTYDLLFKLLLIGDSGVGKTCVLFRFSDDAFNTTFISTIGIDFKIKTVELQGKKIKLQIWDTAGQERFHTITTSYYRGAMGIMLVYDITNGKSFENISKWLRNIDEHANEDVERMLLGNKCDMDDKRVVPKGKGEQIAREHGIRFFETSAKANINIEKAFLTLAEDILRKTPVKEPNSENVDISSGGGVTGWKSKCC
In the case of `N[C@@H]1CCCN(c2c(/C=C3\SC(=O)NC3=O)cccc2-c2ccccc2)C1`, the Kd is reported as > 30 µM (inactive).
`CCS(=O)(=O)N1CC(CC#N)(n2cc(-c3ncnc4[nH]ccc34)cn2)C1` [BARICITINIB] was tested, and the Kd was > 30 µM (inactive).
For `CN1CCN(c2ccc3nc(-c4c(N)c5c(F)cccc5[nH]c4=O)[nH]c3c2)CC1` [DOVITINIB], the Kd was > 30 µM (inactive).
For `CCn1c(-c2nonc2N)nc2c(C#CC(C)(C)O)ncc(OC[C@H]3CCCNC3)c21` [GSK-690693], the Kd was > 30 µM (inactive).
With `Cc1cn(-c2cc(NC(=O)c3ccc(C)c(Nc4nccc(-c5cccnc5)n4)c3)cc(C(F)(F)F)c2)cn1` [NILOTINIB] the Kd was > 30 µM (inactive).
In the case of `Cc1ccc(-n2nc(C(C)(C)C)cc2NC(=O)NCc2cc(F)ccc2Oc2ccc3c(cnn3CCO)c2)cc1` [PEXMETINIB], the Kd is reported as > 30 µM (inactive).
For `OCCn1cc(-c2cnc3nnn(Cc4ccc5ncccc5c4)c3n2)cn1` [PF-04217903], the Kd was > 30 µM (inactive).
With `COc1cc(OC)c(/C=C/S(=O)(=O)Cc2ccc(OC)c(NCC(=O)O)c2)c(OC)c1` [RIGOSERTIB] the Kd was > 30 µM (inactive).
With `C[C@@H](c1ccc2nccn2c1)n1nnc2ncc(-c3cnn(C)c3)nc21` [SAVOLITINIB] the Kd was > 30 µM (inactive).
For `O=C(Nc1cccc(Cl)c1)Nc1ncc(CCNc2ncnc3ccsc23)s1` [SNS-314], the Kd was > 30 µM (inactive).
For `Nc1nc(N)c2nc(-c3cccc(O)c3)c(-c3cccc(O)c3)nc2n1` [TG100-115], the Kd was > 30 µM (inactive).
`CC(C)Nc1cc(-c2c[nH]c(C(=O)N[C@H](CO)c3cccc(Cl)c3)c2)c(Cl)cn1` [ULIXERTINIB] was tested, and the Kd was > 30 µM (inactive).

The compounds below were run against T4, Peroxisomal acyl-coenzyme A oxidase 1 (Homo sapiens, UniProt Q15067).
T4 sequence (Q15067 whole entry): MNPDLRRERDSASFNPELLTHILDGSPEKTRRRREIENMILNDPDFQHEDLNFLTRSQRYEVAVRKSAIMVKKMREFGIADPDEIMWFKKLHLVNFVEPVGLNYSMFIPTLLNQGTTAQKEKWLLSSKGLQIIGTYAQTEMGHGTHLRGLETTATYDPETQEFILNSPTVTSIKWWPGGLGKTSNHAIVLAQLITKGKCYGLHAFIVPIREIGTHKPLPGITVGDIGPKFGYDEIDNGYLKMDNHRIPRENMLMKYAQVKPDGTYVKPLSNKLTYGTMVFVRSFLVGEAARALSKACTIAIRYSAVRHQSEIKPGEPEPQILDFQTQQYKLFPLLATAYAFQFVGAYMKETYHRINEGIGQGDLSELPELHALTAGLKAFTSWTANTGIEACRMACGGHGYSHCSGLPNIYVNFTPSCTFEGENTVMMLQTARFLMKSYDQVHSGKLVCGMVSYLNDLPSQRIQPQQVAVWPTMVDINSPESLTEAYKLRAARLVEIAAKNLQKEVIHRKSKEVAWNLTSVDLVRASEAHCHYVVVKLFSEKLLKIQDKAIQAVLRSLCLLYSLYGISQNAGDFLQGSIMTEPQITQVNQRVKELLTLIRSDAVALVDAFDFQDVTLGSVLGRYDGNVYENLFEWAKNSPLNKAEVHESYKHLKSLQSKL
With `N[C@@H]1CCCN(c2c(/C=C3\SC(=O)NC3=O)cccc2-c2ccccc2)C1` the Kd was > 30 µM (inactive).
With `CCS(=O)(=O)N1CC(CC#N)(n2cc(-c3ncnc4[nH]ccc34)cn2)C1` [BARICITINIB] the Kd was > 30 µM (inactive).
For `CN1CCN(c2ccc3nc(-c4c(N)c5c(F)cccc5[nH]c4=O)[nH]c3c2)CC1` [DOVITINIB], the Kd was > 30 µM (inactive).
With `CCn1c(-c2nonc2N)nc2c(C#CC(C)(C)O)ncc(OC[C@H]3CCCNC3)c21` [GSK-690693] the Kd was > 30 µM (inactive).
With `OCCn1cc(-c2cnc3nnn(Cc4ccc5ncccc5c4)c3n2)cn1` [PF-04217903] the Kd was > 30 µM (inactive).
In the case of `C[C@@H](c1ccc2nccn2c1)n1nnc2ncc(-c3cnn(C)c3)nc21` [SAVOLITINIB], the Kd is reported as > 30 µM (inactive).
With `O=C(Nc1cccc(Cl)c1)Nc1ncc(CCNc2ncnc3ccsc23)s1` [SNS-314] the Kd was > 30 µM (inactive).
With `Nc1nc(N)c2nc(-c3cccc(O)c3)c(-c3cccc(O)c3)nc2n1` [TG100-115] the Kd was > 30 µM (inactive).
With `CC(C)Nc1cc(-c2c[nH]c(C(=O)N[C@H](CO)c3cccc(Cl)c3)c2)c(Cl)cn1` [ULIXERTINIB] the Kd was > 30 µM (inactive).

These compounds were tested against T5, Dual specificity mitogen-activated protein kinase kinase 3 (Homo sapiens, UniProt P46734).
T5 sequence (P46734 whole entry): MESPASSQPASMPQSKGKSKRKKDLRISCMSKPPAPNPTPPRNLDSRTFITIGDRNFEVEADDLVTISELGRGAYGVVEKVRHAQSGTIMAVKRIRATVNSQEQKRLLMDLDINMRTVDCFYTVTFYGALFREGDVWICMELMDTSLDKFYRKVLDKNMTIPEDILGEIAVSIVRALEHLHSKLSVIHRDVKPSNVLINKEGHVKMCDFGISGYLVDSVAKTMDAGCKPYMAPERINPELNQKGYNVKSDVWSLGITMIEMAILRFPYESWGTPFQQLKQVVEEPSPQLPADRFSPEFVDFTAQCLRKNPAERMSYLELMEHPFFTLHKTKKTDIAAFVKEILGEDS
For `N[C@@H]1CCCN(c2c(/C=C3\SC(=O)NC3=O)cccc2-c2ccccc2)C1`, the Kd was > 30 µM (inactive).
For `CCS(=O)(=O)N1CC(CC#N)(n2cc(-c3ncnc4[nH]ccc34)cn2)C1` [BARICITINIB], the Kd was > 30 µM (inactive).
With `Cc1ccc(-n2nc(C(C)(C)C)cc2NC(=O)NCc2cc(F)ccc2Oc2ccc3c(cnn3CCO)c2)cc1` [PEXMETINIB] the Kd was > 30 µM (inactive).
For `OCCn1cc(-c2cnc3nnn(Cc4ccc5ncccc5c4)c3n2)cn1` [PF-04217903], the Kd was > 30 µM (inactive).
With `COc1cc(OC)c(/C=C/S(=O)(=O)Cc2ccc(OC)c(NCC(=O)O)c2)c(OC)c1` [RIGOSERTIB] the Kd was > 30 µM (inactive).
With `C[C@@H](c1ccc2nccn2c1)n1nnc2ncc(-c3cnn(C)c3)nc21` [SAVOLITINIB] the Kd was > 30 µM (inactive).
In the case of `CC(C)Nc1cc(-c2c[nH]c(C(=O)N[C@H](CO)c3cccc(Cl)c3)c2)c(Cl)cn1` [ULIXERTINIB], the Kd is reported as > 30 µM (inactive).

These compounds were tested against MAP/microtubule affinity-regulating kinase 3 (Homo sapiens, UniProt P27448).
Sequence of MAP/microtubule affinity-regulating kinase 3 (P27448 whole entry): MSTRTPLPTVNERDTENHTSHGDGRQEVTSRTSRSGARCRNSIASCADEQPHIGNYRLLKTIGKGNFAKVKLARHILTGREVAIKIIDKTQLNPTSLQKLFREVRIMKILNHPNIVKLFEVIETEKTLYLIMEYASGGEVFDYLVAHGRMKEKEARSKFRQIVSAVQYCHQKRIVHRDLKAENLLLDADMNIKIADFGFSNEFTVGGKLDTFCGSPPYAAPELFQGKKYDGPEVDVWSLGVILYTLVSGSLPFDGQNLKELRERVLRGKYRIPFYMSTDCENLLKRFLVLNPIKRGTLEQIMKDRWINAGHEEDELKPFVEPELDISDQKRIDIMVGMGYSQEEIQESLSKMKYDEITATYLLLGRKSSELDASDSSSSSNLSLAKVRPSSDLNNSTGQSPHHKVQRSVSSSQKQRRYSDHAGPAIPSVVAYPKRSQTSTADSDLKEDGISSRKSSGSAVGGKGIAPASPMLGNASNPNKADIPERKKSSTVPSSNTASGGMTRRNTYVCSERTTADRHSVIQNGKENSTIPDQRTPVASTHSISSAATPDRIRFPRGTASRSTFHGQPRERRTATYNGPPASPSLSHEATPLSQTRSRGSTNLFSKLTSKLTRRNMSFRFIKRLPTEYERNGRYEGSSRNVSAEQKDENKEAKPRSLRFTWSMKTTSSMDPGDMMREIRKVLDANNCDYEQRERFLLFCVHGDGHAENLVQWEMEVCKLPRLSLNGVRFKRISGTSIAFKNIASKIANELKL
`N[C@@H]1CCCN(c2c(/C=C3\SC(=O)NC3=O)cccc2-c2ccccc2)C1` was tested, and the Kd was > 30 µM (inactive).
With `CCS(=O)(=O)N1CC(CC#N)(n2cc(-c3ncnc4[nH]ccc34)cn2)C1` [BARICITINIB] the Kd was 0.104 µM (active).
With `Cc1ccc(-n2nc(C(C)(C)C)cc2NC(=O)NCc2cc(F)ccc2Oc2ccc3c(cnn3CCO)c2)cc1` [PEXMETINIB] the Kd was > 30 µM (inactive).
With `OCCn1cc(-c2cnc3nnn(Cc4ccc5ncccc5c4)c3n2)cn1` [PF-04217903] the Kd was > 30 µM (inactive).
In the case of `COc1cc(OC)c(/C=C/S(=O)(=O)Cc2ccc(OC)c(NCC(=O)O)c2)c(OC)c1` [RIGOSERTIB], the Kd is reported as > 30 µM (inactive).
With `C[C@@H](c1ccc2nccn2c1)n1nnc2ncc(-c3cnn(C)c3)nc21` [SAVOLITINIB] the Kd was > 30 µM (inactive).
With `CC(C)Nc1cc(-c2c[nH]c(C(=O)N[C@H](CO)c3cccc(Cl)c3)c2)c(Cl)cn1` [ULIXERTINIB] the Kd was > 30 µM (inactive).
